Reference: the NIST ThermoML archive (doi:10.1016/j.fluid.2010.03.010)

Settings: Liquid, Vibrating tube method

CCCC[n+]1ccn(C)c1.O=S(=O)([N-]S(=O)(=O)C(F)(F)F)C(F)(F)F
Settings	mass density [kg/m3]
345.15 K, 101.33 kPa	1392.16
346.15 K, 101.33 kPa	1391.23
347.15 K, 101.33 kPa	1390.31
348.15 K, 101.33 kPa	1389.38
349.15 K, 101.33 kPa	1388.46
350.15 K, 101.33 kPa	1387.54
351.15 K, 101.33 kPa	1386.61
352.15 K, 101.33 kPa	1385.69
353.15 K, 100 kPa	1385.8
353.15 K, 101.33 kPa	1384.77
353.15 K, 250 kPa	1385.9
353.15 K, 500 kPa	1386.1
353.15 K, 1000 kPa	1386.5
353.15 K, 2000 kPa	1387.4
353.15 K, 5000 kPa	1390.1
353.15 K, 10000 kPa	1394.3
353.15 K, 14990 kPa	1398.4
353.15 K, 20010 kPa	1402.5
353.15 K, 24990 kPa	1406.3
353.15 K, 30010 kPa	1410.2
353.15 K, 34990 kPa	1413.8
353.15 K, 40000 kPa	1417.5
353.15 K, 45000 kPa	1421
353.15 K, 50000 kPa	1424.6
353.15 K, 54990 kPa	1427.9
353.15 K, 60010 kPa	1431.3
354.15 K, 101.33 kPa	1383.85
355.15 K, 101.33 kPa	1382.93
356.15 K, 101.33 kPa	1382.01
357.15 K, 101.33 kPa	1381.09
358.15 K, 101.33 kPa	1380.17
359.15 K, 101.33 kPa	1379.25
360.15 K, 101.33 kPa	1378.34
361.15 K, 101.33 kPa	1377.42
362.15 K, 101.33 kPa	1376.5
363.15 K, 100 kPa	1376.6
363.15 K, 101.33 kPa	1375.58
363.15 K, 250 kPa	1376.7
363.15 K, 500 kPa	1376.9
363.15 K, 1010 kPa	1377.4
363.15 K, 4990 kPa	1381
363.15 K, 10010 kPa	1385.4
363.15 K, 14990 kPa	1389.6
363.15 K, 20010 kPa	1393.8
363.15 K, 25000 kPa	1397.8
363.15 K, 30010 kPa	1401.7
363.15 K, 34990 kPa	1405.5
363.15 K, 40000 kPa	1409.2
363.15 K, 45010 kPa	1412.8
363.15 K, 50000 kPa	1416.4
363.15 K, 54990 kPa	1419.9
363.15 K, 60000 kPa	1423.4
373.15 K, 100 kPa	1367.3
373.15 K, 250 kPa	1367.4
373.15 K, 500 kPa	1367.7
373.15 K, 1010 kPa	1368.2
373.15 K, 2000 kPa	1369.1
373.15 K, 4990 kPa	1371.9
373.15 K, 10000 kPa	1376.5
373.15 K, 14990 kPa	1380.8
373.15 K, 20000 kPa	1385.1
373.15 K, 24990 kPa	1389.2
373.15 K, 30010 kPa	1393.3
373.15 K, 34970 kPa	1397.1
373.15 K, 40000 kPa	1401
373.15 K, 45000 kPa	1404.7
373.15 K, 50000 kPa	1408.4
373.15 K, 54990 kPa	1411.9
373.15 K, 60010 kPa	1415.5
393.15 K, 100 kPa	1348.8
393.15 K, 250 kPa	1348.9
393.15 K, 500 kPa	1349.2
393.15 K, 1000 kPa	1349.7
393.15 K, 2000 kPa	1350.7
393.15 K, 4990 kPa	1353.7
393.15 K, 10000 kPa	1358.6
393.15 K, 15000 kPa	1363.2
393.15 K, 20010 kPa	1367.8
393.15 K, 25000 kPa	1372.1
393.15 K, 30010 kPa	1376.4
393.15 K, 35000 kPa	1380.5
393.15 K, 40000 kPa	1384.6
393.15 K, 45000 kPa	1388.5
393.15 K, 50000 kPa	1392.4
393.15 K, 55020 kPa	1396.2
393.15 K, 60000 kPa	1399.9
413.15 K, 100 kPa	1330
413.15 K, 250 kPa	1330.2
413.15 K, 500 kPa	1330.5
413.15 K, 1000 kPa	1331
413.15 K, 2000 kPa	1332.1
413.15 K, 4990 kPa	1335.3
413.15 K, 10000 kPa	1340.6
413.15 K, 14990 kPa	1345.6
413.15 K, 20010 kPa	1350.5
413.15 K, 25000 kPa	1355.1
413.15 K, 30000 kPa	1359.7
413.15 K, 34990 kPa	1364
413.15 K, 40000 kPa	1368.4
413.15 K, 45000 kPa	1372.5
413.15 K, 50000 kPa	1376.6
413.15 K, 55000 kPa	1380.6
413.15 K, 60000 kPa	1384.5
433.15 K, 100 kPa	1311
433.15 K, 250 kPa	1311.1
433.15 K, 500 kPa	1311.4
433.15 K, 1000 kPa	1312
433.15 K, 2000 kPa	1313.2
433.15 K, 4990 kPa	1316.7
433.15 K, 10000 kPa	1322.4
433.15 K, 15000 kPa	1327.8
433.15 K, 20010 kPa	1333
433.15 K, 25010 kPa	1338
433.15 K, 30010 kPa	1342.9
433.15 K, 34990 kPa	1347.5
433.15 K, 40000 kPa	1352.1
433.15 K, 45000 kPa	1356.6
433.15 K, 50000 kPa	1360.9
433.15 K, 55000 kPa	1365.1
433.15 K, 60000 kPa	1369.3
453.15 K, 100 kPa	1291.4
453.15 K, 250 kPa	1291.7
453.15 K, 500 kPa	1292
453.15 K, 1000 kPa	1292.6
453.15 K, 1950 kPa	1294
453.15 K, 4990 kPa	1297.7
453.15 K, 10000 kPa	1303.9
453.15 K, 15000 kPa	1309.7
453.15 K, 20000 kPa	1315.3
453.15 K, 25000 kPa	1320.7
453.15 K, 30010 kPa	1325.9
453.15 K, 35000 kPa	1330.9
453.15 K, 40000 kPa	1335.9
453.15 K, 45010 kPa	1340.6
453.15 K, 50000 kPa	1345.3
453.15 K, 54990 kPa	1349.8
453.15 K, 60000 kPa	1354.3
473.15 K, 100 kPa	1271.4
473.15 K, 250 kPa	1271.7
473.15 K, 500 kPa	1272
473.15 K, 990 kPa	1272.7
473.15 K, 2000 kPa	1274.2
473.15 K, 4990 kPa	1278.2
473.15 K, 10000 kPa	1285
473.15 K, 15000 kPa	1291.2
473.15 K, 20010 kPa	1297.4
473.15 K, 24990 kPa	1303.2
473.15 K, 30010 kPa	1308.9
473.15 K, 34990 kPa	1314.2
473.15 K, 40010 kPa	1319.6
473.15 K, 45000 kPa	1324.7
473.15 K, 50000 kPa	1329.7
473.15 K, 55000 kPa	1334.5
473.15 K, 60000 kPa	1339.3
